Experiments:
[1] = test system: pathogenic bacteria causing bacterial wilt in tobacco; experiment: whole plant or invertebrate; type: cell-based, ralstonia; conditions: read-out: inhibitory rate
[2] = test system: bacterial wilt in tobacco; experiment: whole plant or invertebrate; conditions: Nicotiana tabacum, read-out: efficacy against bacterial wilt in tobacco
[3] = test system: bacterial blight in rice; experiment: whole plant or invertebrate; conditions: Oryza sativa, read-out: efficacy against bacterial blight in rice
[4] = test system: pathogenic bacteria causing fire blight in pears; experiment: In vitro bactericidal activity, fire blight in pears; type: cell-based, erwinia; conditions: Erwinia, read-out: inhibitory rate; for inhibition at 1 ppm: dosage 1 ppm; for inhibition at 5 ppm: dosage 5 ppm
[5] = test system: cucumber seedlings; experiment: Safety for plant growth after application; type: in vivo; conditions: dosage 200 ppm
Summary of the method: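 Compound applied to indoor cucumber seedlings in pots. Growth then scored: height increase rate, leaf chlorophyll, leaf area.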

[6] = test system: indoor potted cucumber seedlings; experiment: Effect of improving growth and development of crops; type: in vivo; design: Rate of growth rate increase (%): concentration or dose not given beside the values; conditions: versus blank control; for Rate of chlorophyll content increase (%) / Rate of leaf area increase (%): 14 days after application; for Rate of growth rate increase (%): plant height 14 days after application; for Rate of leaf area increase (%): second leaf
Summary of the method: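 Before treatment, plant height and the second leaf's length and width are recorded. After 14 days these are repeated, chlorophyll is read by meter, and percentage increases in growth rate, leaf area and chlorophyll are computed.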

[7] = test system: fruit blotch in watermelons; experiment: whole plant or invertebrate; conditions: read-out: efficacy against fruit blotch in watermelons
[8] = test system: pathogenic bacteria causing black shank in potatoes; experiment: In vitro bactericidal activity, black shank in potatoes; type: cell-based; conditions: read-out: inhibitory rate; for inhibition at 1 ppm: dosage 1 ppm; for inhibition at 5 ppm: dosage 5 ppm
[9] = test system: pathogenic bacteria causing bacterial wilt in cassava; experiment: organism not typed; type: cell-based; conditions: read-out: inhibitory rate
[10] = test system: pathogenic bacteria causing stem rot in sweet potatoes; experiment: In vitro bactericidal activity, stem rot in sweet potatoes; type: cell-based, dikia; conditions: read-out: inhibitory rate; for inhibition at 1 ppm: dosage 1 ppm; for inhibition at 5 ppm: dosage 5 ppm
[11] = test system: pathogenic bacteria causing bacterial angular leaf spot in cucumbers; experiment: In vitro bactericidal activity, bacterial angular leaf spot in cucumbers; type: cell-based, pseudomonas; conditions: read-out: inhibitory rate; for inhibition at 1 ppm: dosage 1 ppm; for inhibition at 5 ppm: dosage 5 ppm
[12] = test system: pathogenic bacteria causing black rot in Chinese cabbages; experiment: In vitro bactericidal activity, black rot in Chinese cabbages; type: cell-based, xanthomonas; conditions: Xanthomonas, read-out: inhibitory rate; for inhibition at 1 ppm: dosage 1 ppm; for inhibition at 5 ppm: dosage 5 ppm
[13] = test system: black shank in potatoes; experiment: Living crops in vivo protective activity, potatoes (root irrigation); conditions: Solanum tuberosum, read-out: efficacy against black shank in potatoes; for pest or weed control at 5 ppm: dosage 5 ppm; for pest or weed control at 10 ppm: dosage 10 ppm
Procedure: Root irrigation was carried out on the potatoes for tests according to the designed concentration of the agents. The dosage for each plant was 200 mL and was kept consistent (also for the control). The black shank bacteria were inoculated on the second day after the application. The results were investigated according to the disease condition.

[14] = test system: stem rot in sweet potatoes; experiment: whole plant or invertebrate; conditions: read-out: efficacy against stem rot in sweet potatoes
[15] = test system: pathogenic bacteria causing bacterial blight in rice; experiment: whole plant or invertebrate; type: cell-based, xanthomonas; conditions: read-out: inhibitory rate
[16] = test system: soft rot in Chinese cabbages; experiment: whole plant or invertebrate; conditions: 48 h, read-out: efficacy against soft rot in Chinese cabbages
[17] = test system: pathogenic bacteria causing fruit blotch in watermelons; experiment: In vitro bactericidal activity, fruit blotch in watermelons; type: cell-based, acidovorax; conditions: read-out: inhibitory rate; for inhibition at 1 ppm: dosage 1 ppm; for inhibition at 5 ppm: dosage 5 ppm

| Compound | inhibition at 1 ppm [1] [%] | inhibition at 5 ppm [1] [%] | pest or weed control at 5 ppm [2] [%] | pest or weed control at 10 ppm [2] [%] | pest or weed control at 5 ppm [3] [%] | pest or weed control at 10 ppm [3] [%] | inhibition at 1 ppm [4] [%] | inhibition at 5 ppm [4] [%] | safety for plant growth (discoloration, necrosis, wilt, malformation) [5] | Rate of chlorophyll content increase (%) [6] [%] | Rate of growth rate increase (%) [6] [%] | Rate of leaf area increase (%) [6] [%] | pest or weed control at 5 ppm [7] [%] | pest or weed control at 10 ppm [7] [%] | inhibition at 1 ppm [8] [%] | inhibition at 5 ppm [8] [%] | inhibition at 1 ppm [9] [%] | inhibition at 5 ppm [9] [%] | inhibition at 1 ppm [10] [%] | inhibition at 5 ppm [10] [%] | other results |
| --- | --- | --- | --- | --- | --- | --- | --- | --- | --- | --- | --- | --- | --- | --- | --- | --- | --- | --- | --- | --- | --- |
| CCOc1cc2c(cc1F)c(=O)c(C(=O)OCCO)cn2C1CC1 [Compound 265] | ≥ 90 | ≥ 90 | ≥ 90 | ≥ 90 | ≥ 90 | ≥ 90 | ≥ 90 | ≥ 90 | safe for plant growth | 13 | 12 | 15 | ≥ 90 | ≥ 90 | ≥ 90 | ≥ 90 | ≥ 90 | ≥ 90 | ≥ 90 | ≥ 90 | inhibition at 1 ppm [11]: ≥ 90%; inhibition at 5 ppm [11]: ≥ 90%; inhibition at 1 ppm [12]: ≥ 90%; inhibition at 5 ppm [12]: ≥ 90%; pest or weed control at 5 ppm [13]: ≥ 90%; pest or weed control at 10 ppm [13]: ≥ 90%; pest or weed control at 5 ppm [14]: ≥ 90%; pest or weed control at 10 ppm [14]: ≥ 90%; inhibition at 1 ppm [15]: ≥ 90%; inhibition at 5 ppm [15]: ≥ 90%; pest or weed control at 5 ppm [16]: ≥ 90%; pest or weed control at 10 ppm [16]: ≥ 90%; inhibition at 1 ppm [17]: ≥ 90%; inhibition at 5 ppm [17]: ≥ 90% |
| CC(C)(C)Oc1cc2c(cc1F)c(=O)c(C(=O)OCCO)cn2C1CC1 [Compound 270] | ≥ 90 | ≥ 90 | ≥ 90 | ≥ 90 | ≥ 90 | ≥ 90 | ≥ 90 | ≥ 90 | safe for plant growth | 10 | 9 | 12 | ≥ 90 | ≥ 90 | ≥ 90 | ≥ 90 | ≥ 90 | ≥ 90 | ≥ 90 | ≥ 90 | inhibition at 1 ppm [11]: ≥ 90%; inhibition at 5 ppm [11]: ≥ 90%; inhibition at 1 ppm [12]: ≥ 90%; inhibition at 5 ppm [12]: ≥ 90%; pest or weed control at 5 ppm [13]: ≥ 80%; pest or weed control at 10 ppm [13]: ≥ 90%; pest or weed control at 5 ppm [14]: ≥ 90%; pest or weed control at 10 ppm [14]: ≥ 90%; inhibition at 1 ppm [15]: ≥ 90%; inhibition at 5 ppm [15]: ≥ 90%; pest or weed control at 5 ppm [16]: ≥ 90%; pest or weed control at 10 ppm [16]: ≥ 90%; inhibition at 1 ppm [17]: ≥ 90%; inhibition at 5 ppm [17]: ≥ 90% |
| O=C(OCCO)c1cn(C2CC2)c2cc(OCC(F)(F)F)c(F)cc2c1=O [Compound 275] | ≥ 90 | ≥ 90 | ≥ 90 | ≥ 90 | ≥ 90 | ≥ 90 | ≥ 90 | ≥ 90 | safe for plant growth | 13 | 12 | 11 | ≥ 90 | ≥ 90 | ≥ 90 | ≥ 90 | ≥ 90 | ≥ 90 | ≥ 90 | ≥ 90 | inhibition at 1 ppm [11]: ≥ 90%; inhibition at 5 ppm [11]: ≥ 90%; inhibition at 1 ppm [12]: ≥ 90%; inhibition at 5 ppm [12]: ≥ 90%; pest or weed control at 5 ppm [13]: ≥ 90%; pest or weed control at 10 ppm [13]: ≥ 90%; pest or weed control at 5 ppm [14]: ≥ 90%; pest or weed control at 10 ppm [14]: ≥ 90%; inhibition at 1 ppm [15]: ≥ 90%; inhibition at 5 ppm [15]: ≥ 90%; pest or weed control at 5 ppm [16]: ≥ 90%; pest or weed control at 10 ppm [16]: ≥ 90%; inhibition at 1 ppm [17]: ≥ 90%; inhibition at 5 ppm [17]: ≥ 90% |
| COCCOC(=O)c1cn(C2CC2)c2cc(OC)c(F)cc2c1=O [Compound 281] | ≥ 90 | ≥ 90 | ≥ 90 | ≥ 90 | ≥ 90 | ≥ 90 | ≥ 90 | ≥ 90 | safe for plant growth | 16 | 13 | 13 | ≥ 90 | ≥ 90 | ≥ 90 | ≥ 90 | ≥ 90 | ≥ 90 | ≥ 90 | ≥ 90 | inhibition at 1 ppm [11]: ≥ 90%; inhibition at 5 ppm [11]: ≥ 90%; inhibition at 1 ppm [12]: ≥ 90%; inhibition at 5 ppm [12]: ≥ 90%; pest or weed control at 5 ppm [13]: ≥ 90%; pest or weed control at 10 ppm [13]: ≥ 90%; pest or weed control at 5 ppm [14]: ≥ 90%; pest or weed control at 10 ppm [14]: ≥ 90%; inhibition at 1 ppm [15]: ≥ 90%; inhibition at 5 ppm [15]: ≥ 90%; pest or weed control at 5 ppm [16]: ≥ 90%; pest or weed control at 10 ppm [16]: ≥ 90%; inhibition at 1 ppm [17]: ≥ 90%; inhibition at 5 ppm [17]: ≥ 90% |

Source: patent publication US20250313533A1, “QUINOLINE CARBOXYLIC ACID ESTER COMPOUND AND PREPARATION METHOD AND USE THEREOF” (priority 2019, published 2025)
